Source: patent US10988523B2, “Modified lipidated Relaxin B chain peptides and their therapeutic use” (Sanofi, priority 2018, dated 2021)
Values after ≈ are worked out from the molar mass of the structure shown. Like-named read-outs stand apart in the source and are kept apart here. *1 amine or outer side, *2 acyl side, *3 side chain or, on linkers, in order; H or OH if unused. Where a SMILES comes first, the peptide text is derived from it. Side-chain parts run from the residue outwards. [ ]: non-standard residue; d: D form. The star is where a group is joined. PEG12 = NCCOCCOCCOCCOCCOCCOCCOCCOCCOCCOCCOCCOCCC(=O)O; γGlu = O=C(O)[C@H](CCC(=O)[*:2])N[*:1]; Stearoyl = CCCCCCCCCCCCCCCCCC(=O)*; Palmitoyl = CCCCCCCCCCCCCCCC(=O)*; αMeK = C[C@](N)(CCCCN)C(=O)O; Nle = CCCC[C@H](N)C(=O)O; AEEA = NCCOCCOCC(=O)O; Aib = CC(C)(N)C(=O)O

Assay: Solubility testing of peptides in buffer
Assay type: physicochemical
[1] = acetate buffer, pH 4.5, read-out: Solubility Acetate buffer pH 4.5
[2] = phosphate buffer, pH 7.4, read-out: Solubility phosphate buffer pH 7.4
[3] = acetate buffer 50 mM pH 4.5, target solubility 10.0 mg/ml, read-out: Solubility Acetate buffer pH 4.5
[4] = phosphate buffer 50 mM pH 7.4, target solubility 10.0 mg/ml, read-out: Solubility phosphate buffer pH 7.4

Row | solubility [1] [µg/mL] | solubility [2] [µg/mL] | solubility (acetate buffer 50 mM pH 4.5, target solubility 15.0 mg/ml, read-out: Solubility Acetate buffer pH 4.5) [µg/mL] | solubility [3] [µg/mL] | solubility [4] [µg/mL] | SMILES
1 | 5400 (≈ 1280 µM) | 5400 (≈ 1280 µM) |  |  |  | CCCCCCCCCCCCCCCCCC(=O)N[C@@H](CCC(=O)N[C@@H](CCC(=O)N[C@@H](CCC(=O)NCCCC[C@H](NC(=O)CCOCCOCCOCCOCCOCCOCCOCCOCCOCCOCCOCCOCCNC(=O)[C@H](CCCCNC(C)=O)NC(=O)[C@H](CCCCN)NC(=O)[C@H](CCCNC(=N)N)NC(=O)C(C)(C)NC(=O)[C@H](CO)NC(=O)[C@H](Cc1c[nH]c2ccccc12)NC(=O)[C@@H](NC(=O)[C@H](CO)NC(=O)[C@H](CCCC)NC(=O)CNC(=O)[C@H](CCC(=O)O)NC(=O)C(C)(C)NC(=O)C(C)(C)NC(=O)[C@@H](NC(=O)[C@H](CCCCNC(C)=O)NC(=O)[C@H](C)NC(=O)[C@H](CCCNC(=N)N)NC(=O)[C@@H](NC(=O)[C@H](CCCCN)NC(=O)[C@H](CCC(=O)O)NC(=O)[C@H](CCCNC(=N)N)NC(=O)CNC(=O)[C@H](CCC(=O)O)NC(=O)[C@H](CC(C)C)NC(C)=O)C(C)C)[C@@H](C)CC)[C@@H](C)O)C(N)=O)C(=O)O)C(=O)O)C(=O)O [compound 33] (Ac-LEGREKVRAK(Ac)I[Aib][Aib]EG[Nle]STWS[Aib]RKK(Ac)[PEG12]K([γGlu-γGlu-γGlu-Stearoyl])-NH2)
2 | 5700 (≈ 1550 µM) | 5700 (≈ 1550 µM) |  |  |  | CCCCCCCCCCCCCCCC(=O)N[C@@H](CCC(=O)N[C@@H](CCC(=O)N[C@@H](CCC(=O)NCCOCCOCC(=O)NCCOCCOCC(=O)NCCCC[C@H](NC(=O)[C@H](CCCCN)NC(=O)[C@H](CCCNC(=N)N)NC(=O)C(C)(C)NC(=O)[C@H](CO)NC(=O)[C@H](Cc1c[nH]c2ccccc12)NC(=O)[C@@H](NC(=O)[C@H](CO)NC(=O)[C@H](CCCC)NC(=O)CNC(=O)[C@H](CCC(=O)O)NC(=O)C(C)(C)NC(=O)C(C)(C)NC(=O)[C@@H](NC(=O)[C@H](CCC(N)=O)NC(=O)[C@H](C)NC(=O)[C@H](CCCNC(=N)N)NC(=O)[C@@H](NC(=O)[C@H](CCCCN)NC(=O)[C@H](CCC(=O)O)NC(=O)[C@H](CCCNC(=N)N)NC(=O)CNC(=O)[C@H](CCC(=O)O)NC(=O)[C@H](CC(C)C)NC(C)=O)C(C)C)[C@@H](C)CC)[C@@H](C)O)C(N)=O)C(=O)O)C(=O)O)C(=O)O [compound 58] (Ac-LEGREKVRAQI[Aib][Aib]EG[Nle]STWS[Aib]RKK([AEEA-AEEA-γGlu-γGlu-γGlu-Palmitoyl])-NH2)
3 |  |  | 11900 (≈ 2920 µM) |  |  | CCCCCCCCCCCCCCCCCC(=O)N[C@@H](CCC(=O)N[C@@H](CCC(=O)N[C@@H](CCC(=O)NCCOCCOCC(=O)NCCOCCOCC(=O)NCCOCCOCC(=O)NCCCC[C@H](NC(=O)[C@H](CCCCNC(C)=O)NC(=O)[C@H](CCCCN)NC(=O)[C@H](CCCNC(=N)N)NC(=O)C(C)(C)NC(=O)[C@H](CO)NC(=O)[C@H](Cc1c[nH]c2ccccc12)NC(=O)[C@@H](NC(=O)[C@H](CO)NC(=O)[C@H](CCCC)NC(=O)CNC(=O)[C@H](CCC(=O)O)NC(=O)C(C)(C)NC(=O)C(C)(C)NC(=O)[C@@H](NC(=O)[C@H](CCCCNC(C)=O)NC(=O)[C@H](C)NC(=O)[C@H](CCCNC(=N)N)NC(=O)[C@@H](NC(=O)[C@H](CCCCN)NC(=O)[C@H](CCC(=O)O)NC(=O)[C@H](CCCNC(=N)N)NC(=O)CNC(=O)[C@H](CCC(=O)O)NC(=O)[C@H](CC(C)C)NC(C)=O)C(C)C)[C@@H](C)CC)[C@@H](C)O)C(N)=O)C(=O)O)C(=O)O)C(=O)O [compound 81] (Ac-LEGREKVRAK(Ac)I[Aib][Aib]EG[Nle]STWS[Aib]RKK(Ac)K([AEEA-AEEA-AEEA-γGlu-γGlu-γGlu-Stearoyl])-NH2)
4 |  |  |  | 1500 (≈ 351 µM) | > 10000 | CCCCCCCCCCCCCCCC(=O)N[C@@H](CCC(=O)N[C@@H](CCC(=O)N[C@@H](CCC(=O)N[C@@H](CCC(=O)NCCCC[C@H](NC(=O)COCCOCCNC(=O)COCCOCCNC(=O)COCCOCCNC(=O)COCCOCCNC(=O)[C@H](CCCCNC(C)=O)NC(=O)[C@H](C)NC(=O)[C@H](CCCNC(=N)N)NC(=O)[C@](C)(CCCCN)NC(=O)[C@H](CO)NC(=O)[C@H](Cc1ccccc1)NC(=O)[C@@H](NC(=O)[C@H](CO)NC(=O)[C@H](CCCC)NC(=O)CNC(=O)[C@H](CCC(=O)O)NC(=O)C(C)(C)NC(=O)C(C)(C)NC(=O)[C@@H](NC(=O)[C@H](CCCCNC(C)=O)NC(=O)[C@H](C)NC(=O)[C@H](CCCNC(=N)N)NC(=O)[C@@H](NC(=O)[C@H](CCCCN)NC(=O)[C@H](CCC(=O)O)NC(=O)[C@H](CCCNC(=N)N)NC(=O)CNC(=O)[C@H](CCC(=O)O)NC(=O)[C@H](CC(C)C)NC(C)=O)C(C)C)[C@@H](C)CC)[C@@H](C)O)C(N)=O)C(=O)O)C(=O)O)C(=O)O)C(=O)O [compound 150] (Ac-LEGREKVRAK(Ac)I[Aib][Aib]EG[Nle]STFS[αMeK]RAK(Ac)[AEEA][AEEA][AEEA][AEEA]K([γGlu-γGlu-γGlu-γGlu-Palmitoyl])-NH2)
5 |  |  |  | 9800 (≈ 2280 µM) | > 10000 | CCCCCCCCCCCCCCCC(=O)N[C@@H](CCC(=O)N[C@@H](CCC(=O)N[C@@H](CCC(=O)N[C@@H](CCC(=O)NCCCC[C@H](NC(=O)COCCOCCNC(=O)COCCOCCNC(=O)COCCOCCNC(=O)COCCOCCNC(=O)[C@H](CCCCNC(C)=O)NC(=O)[C@H](C)NC(=O)[C@H](CCCNC(=N)N)NC(=O)[C@](C)(CCCCN)NC(=O)[C@H](CO)NC(=O)[C@H](Cc1ccccc1)NC(=O)[C@@H](NC(=O)[C@H](CO)NC(=O)[C@H](CCC(N)=O)NC(=O)CNC(=O)[C@H](CCC(=O)O)NC(=O)C(C)(C)NC(=O)C(C)(C)NC(=O)[C@@H](NC(=O)[C@H](CCCCNC(C)=O)NC(=O)[C@H](C)NC(=O)[C@H](CCCNC(=N)N)NC(=O)[C@@H](NC(=O)[C@H](CCCCN)NC(=O)[C@H](CCC(=O)O)NC(=O)[C@H](CCCNC(=N)N)NC(=O)CNC(=O)[C@H](CCC(=O)O)NC(=O)[C@H](CC(C)C)NC(C)=O)C(C)C)[C@@H](C)CC)[C@@H](C)O)C(N)=O)C(=O)O)C(=O)O)C(=O)O)C(=O)O [compound 170] (Ac-LEGREKVRAK(Ac)I[Aib][Aib]EGQSTFS[αMeK]RAK(Ac)[AEEA][AEEA][AEEA][AEEA]K([γGlu-γGlu-γGlu-γGlu-Palmitoyl])-NH2)
